{
  "source": "patent US9676997B2",
  "about": "“Compositions and methods for stabilizing luminogenic substrates” (Promega Corporation, priority 2014, dated 2017)",
  "type_in_all_cases": "physicochemical",
  "key": {"[1]": {"test": "Stability of 1.25 mM furimazine in DMSO with or without 225 mM ATT, HPLC", "details": "room temperature, 40° C., and 60° C., in the presence of light", "protocol": "To further examine the stabilization of furimazine by ATT, stability of furimazine was measured at room temperature, 40°, and 60° C. in a different organic solvent, namely DMSO. This study was performed in the presence of light.\nSpecifically, a 2× stock solution of ATT in DMSO was prepared, in which the final concentration of ATT was 64.4 mg/mL. A 2× stock solution of furimazine in DMSO was also prepared, in which the final concentration of furimazine was 0.95 mg/mL. In one vial, the 2× ATT stock solution was diluted 1:1 in the 2× furimazine stock solution to create a solution containing 225 mM ATT and 1.25 mM furimazine. In a second vial, furimazine was diluted 1:1 in DMSO to create a control solution without the additive ATT (i.e., “no additive furimazine” control) and containing 1.25 mM furimazine.\nThe content of each vial was dispensed into separate, clear HPLC vials with insert and these HPLC vials were placed at room temperature (i.e., about 20° C.), 40° C., and 60° C. There was one HPLC vial per time point for each temperature.\nStability was measured by HPLC with 5 μL injection and detection at 262 nm. In each chromatogram, the area percentage of furimazine was determined."}, "[2]": {"test": "Stability of 1.25 mM coelenterazine-h in 50% ethanol and 50% propylene glycol with or without 225 mM ATT, HPLC and Arrhenius plots", "details": "225 mM ATT, over time at different temperatures", "protocol": "(§1) The stability of coelenterazine-h in the presence and absence of ATT was measured over time at different temperatures. Specifically, 1.25 mM coelenterazine-h was present in a solution of 50% ethanol and 50% propylene glycol (i.e., the solution without ATT) or a solution of 50% ethanol and 50% propylene glycol with 225 mM ATT (i.e., the solution with ATT). These two solutions were incubated at −20° C., room temperature (RT), 40° C., or 60° C. and analyzed at for 0 days, 1 day, 3 days, 7 days, 15 days, and 30 days.\n(§2) Following incubation, high performance liquid chromatography (HPLC) was utilized to identify the components of the respective solutions at each time point. Specifically, an Agilent 1100 HPLC instrument was used and equipped with a quaternary pump, thermostatted autosampler and column compartment, and a G1311B diode-array detector. The column used was a Synergi-MAX-RP (Phenomenex, Torrance, Calif.) 100 AÅ 50×4.6 2.5 μm. The run on the HPLC was a gradient run with 0.1% TFA in water and acetonitrile. Absorbance was measured at 262 nanometers (nm). Standards of coelenterazine-h and its known degradants were run to confirm both the retention time and absorbance trace. 5 μl of each solution was injected and the retention time of coelenterazine-h was 4.7 minutes at room temperature.\n(§3) The results of the HPLC analysis are shown below in Tables 4 and 5 and FIGS. 2A and 2B, in which the values are reported as relative peak area percentage at 262 nm (i.e., the lamba max of the substrate). […] In each of FIGS. 2A and 2B, diamond is 1.25 mM coelenterazine-h incubated over time with or without 225 mM ATT, respectively, at −20° C., triangle is 1.25 mM coelenterazine-h incubated over time with or without 225 mM ATT, respectively, at room temperature (RT), star is 1.25 mM coelenterazine-h incubated over time with or without 225 mM ATT, respectively, at 40° C., and cross is 1.25 mM coelenterazine-h incubated over time with or without 225 mM ATT, respectively, at 60° C.\nFrom the HPLC analysis, the half-life of coelenterazine-h in the presence of ATT at 40° C. and 60° C. was calculated to be 20 days and 5 days, respectively, while the half-life of coelenterazine-h in the absence of ATT at 20° C., 40° C. and 60° C. was calculated to be 24 days, 7.5 days and 2 days, respectively (see Table 6 below).\nAdditionally, Arrhenius plots were generated for coelenterazine-h in the presence and absence of ATT to calculate the half-life of coelenterazine-h at various temperatures. The Arrhenius equation is as follows: […]\nIn FIG. 9, the slope was −8131.2, the intercept was 22.6157, and R^2 was 0.9994.\nIn FIG. 10, the slope was −7310.53, the intercept was 21.4386, and R^2 was 0.9964."}, "[3]": {"test": "Stability of 1.25 mM coelenterazine-h-h in 50% ethanol and 50% propylene glycol with or without 225 mM ATT, HPLC and Arrhenius plots", "details": "225 mM ATT, over time at different temperatures", "protocol": "as §1, with “coelenterazine-h-h” for “coelenterazine-h”, “at” for “at for”\nas §2, with “coelenterazine-h-h” for “coelenterazine-h”, “coelenterazine-h-h” for “coelenterazine-h was 4.7 minutes”, “temperature was 5.5 minutes.” for “temperature.”\nas §3, with “Tables 7” for “Tables 4”, “and 8” for “and 5”, “FIGS. 3A” for “FIGS. 2A”, “and 3B,” for “and 2B,”, “mM coelenterazine-h-h” for “mM coelenterazine-h”\nFrom the HPLC analysis, the half-life of coelenterazine-h-h in the presence of ATT at 60° C. was calculated to be 10 days while the half-life of coelenterazine-h-h in the absence of ATT at 40° C. and 60° C. was calculated to be 27 days and 8 days, respectively (see Table 9 below).\nAdditionally, Arrhenius plots were generated for coelenterazine-h-h in the presence and absence of ATT to calculate the half-life of coelenterazine-h-h at various temperatures. The Arrhenius equation is as follows: […]\nIn FIG. 11, the slope was −10740.9, the intercept was 30.0575, and R^2 was 0.9967.\nIn FIG. 12, the […], and R^2 was 0.9648."}},
  "data": [
    {"smiles": "Cc1n[nH]c(=S)[nH]c1=O", "note": "[ATT, 6-methyl-3-thioxo-3,4-dihydro-1,2,4-triazin-5(2H)-one]", "values": [
      {"measurement": "stabilization of furimazine in DMSO against decomposition", "setting": "[1]", "result": "stabilized furimazine in DMSO against decomposition at different temperatures"},
      {"measurement": "stabilization of coelenterazine-h against decomposition", "setting": "[2]", "result": "stabilized coelenterazine-h against decomposition over time at different temperatures"},
      {"measurement": "stabilization of coelenterazine-h-h against decomposition", "setting": "[3]", "result": "stabilized coelenterazine-h-h against decomposition over time at different temperatures"}
    ]}
  ]
}
